{
  "source": "patent EP4233849A1",
  "about": "“PHARMACEUTICAL COMPOSITION COMPRISING POMALIDOMIDE” (KRKA, d.d., Novo mesto, priority 2022, dated 2023)",
  "origin": "cited, not measured here",
  "key": {"[1]": {"settings": "according to BCS classification"}, "[2]": {"settings": "accelerated and room temperature conditions; anhydrous lactose, microcrystalline cellulose, anhydrous dibasic calcium phosphate, croscarmellose sodium, magnesium stearate"}},
  "note": "Like-named read-outs stand apart in the source and are kept apart here.",
  "data": [
    {"smiles": "Nc1cccc2c1C(=O)N(C1CCC(=O)NC1=O)C2=O", "note": "(racemic) [Pomalidomide, (RS) 4-Amino-2-(2,6-dioxopiperidin-3-yl)isoindole-1,3-dione]", "values": [
      {"measurement": "solubility", "setting": "in absolute ethanol, ethyl acetate, heptane, methanol, 2-propanol and toluene", "value": "very slightly soluble"},
      {"measurement": "solubility", "setting": "in acetone, acetonitrile, methylene chloride, methyl ethyl ketone and tetrahydrofuran", "value": "slightly soluble"},
      {"measurement": "solubility", "setting": "in water", "value": "practically insoluble"},
      {"measurement": "solubility", "setting": "[1]", "value": "low solubility"},
      {"measurement": "stability in the presence of particular excipients", "setting": "[2]", "value": "instability problems"}
    ]}
  ]
}
